Experiments:
[1] = molecular target: Cyclin-dependent kinase 4 (Homo sapiens) (UniProt P11802); conditions: Compound concentration 1000.0 nM
[2] = molecular target: Dual specificity mitogen-activated protein kinase kinase 6 (Homo sapiens) (UniProt P52564); conditions: Compound concentration 1000.0 nM
[3] = molecular target: Tyrosine-protein kinase JAK1 (Homo sapiens) (UniProt P23458); conditions: Compound concentration 1000.0 nM
[4] = molecular target: Cyclin-G-associated kinase (Homo sapiens) (UniProt O14976); conditions: Compound concentration 1000.0 nM
[5] = molecular target: Death-associated protein kinase 2 (Homo sapiens) (UniProt Q9UIK4); conditions: Compound concentration 1000.0 nM
[6] = molecular target: Serine/threonine-protein kinase MARK1 (Homo sapiens) (UniProt Q9P0L2); conditions: Compound concentration 1000.0 nM
[7] = molecular target: Insulin receptor (Homo sapiens) (UniProt P06213); conditions: Compound concentration 1000.0 nM
[8] = molecular target: Tyrosine-protein kinase ABL1 (Homo sapiens) (UniProt P00519); conditions: Compound concentration 1000.0 nM
[9] = molecular target: Mitogen-activated protein kinase kinase kinase kinase 2 (Homo sapiens) (UniProt Q12851); conditions: Compound concentration 1000.0 nM
[10] = molecular target: Ribosomal protein S6 kinase beta-1 (Homo sapiens) (UniProt P23443); conditions: Compound concentration 1000.0 nM
[11] = molecular target: Cyclin-dependent kinase 16 (Homo sapiens) (UniProt Q00536); conditions: Compound concentration 1000.0 nM
[12] = molecular target: Cyclin-dependent kinase 4 (Homo sapiens) (UniProt P11802); conditions: Compound concentration 1000.0 nM; remark: listed apart in the source
[13] = molecular target: 5-hydroxytryptamine receptor 1B (Homo sapiens) (UniProt P28222); conditions: Compound concentration 10.0 uM
[14] = molecular target: Tyrosine-protein kinase receptor TYRO3 (Homo sapiens) (UniProt Q06418); conditions: Compound concentration 1000.0 nM
[15] = molecular target: Rho-associated protein kinase 2 (Homo sapiens) (UniProt O75116); conditions: Compound concentration 1000.0 nM
[16] = molecular target: Serine/threonine-protein kinase ULK1 (Homo sapiens) (UniProt O75385); conditions: Compound concentration 1000.0 nM
[17] = molecular target: Sodium-dependent dopamine transporter (Homo sapiens) (UniProt Q01959); conditions: Compound concentration 10.0 uM
[18] = molecular target: Sigma non-opioid intracellular receptor 1 (Homo sapiens) (UniProt Q99720); conditions: Compound concentration 10.0 uM
[19] = tested on: Proto-oncogene tyrosine-protein kinase receptor Ret (Homo sapiens), P07949 [V804L]; conditions: Compound concentration 1000.0 nM
[20] = molecular target: Bone morphogenetic protein receptor type-1B (Homo sapiens) (UniProt O00238); conditions: Compound concentration 1000.0 nM
[21] = tested on: Hepatocyte growth factor receptor (Homo sapiens), P08581 [Y1235D]; conditions: Compound concentration 1000.0 nM
[22] = molecular target: Serine/threonine-protein kinase 10 (Homo sapiens) (UniProt O94804); conditions: Compound concentration 1000.0 nM
[23] = molecular target: Phosphatidylinositol 5-phosphate 4-kinase type-2 gamma (Homo sapiens) (UniProt Q8TBX8); conditions: Compound concentration 1000.0 nM
[24] = tested on: Phosphatidylinositol 4,5-bisphosphate 3-kinase catalytic subunit alpha isoform (Homo sapiens), P42336 [H1047Y]; conditions: Compound concentration 1000.0 nM
[25] = molecular target: Proto-oncogene tyrosine-protein kinase ROS (Homo sapiens) (UniProt P08922); conditions: Compound concentration 1000.0 nM
[26] = molecular target: Casein kinase I isoform epsilon (Homo sapiens) (UniProt P49674); conditions: Compound concentration 1000.0 nM
[27] = molecular target: MAP/microtubule affinity-regulating kinase 4 (Homo sapiens) (UniProt Q96L34); conditions: Compound concentration 1000.0 nM
[28] = molecular target: MAP kinase-activated protein kinase 2 (Homo sapiens) (UniProt P49137); conditions: Compound concentration 1000.0 nM
[29] = molecular target: 5'-AMP-activated protein kinase catalytic subunit alpha-1 (Homo sapiens) (UniProt Q13131); conditions: Compound concentration 1000.0 nM
[30] = molecular target: Serine/threonine-protein kinase 3 (Homo sapiens) (UniProt Q13188); conditions: Compound concentration 1000.0 nM
[31] = molecular target: Focal adhesion kinase 1 (Homo sapiens) (UniProt Q05397); conditions: Compound concentration 1000.0 nM
[32] = tested on: Mast/stem cell growth factor receptor Kit (Homo sapiens), P10721 [V559D,T670I]; conditions: Compound concentration 1000.0 nM
[33] = molecular target: Ribosomal protein S6 kinase alpha-3 (Homo sapiens) (UniProt P51812); conditions: Compound concentration 1000.0 nM
[34] = molecular target: T1, 5-hydroxytryptamine receptor 1A (Homo sapiens) (UniProt P08908); conditions: Compound concentration 10.0 uM
T1 sequence (whole entry): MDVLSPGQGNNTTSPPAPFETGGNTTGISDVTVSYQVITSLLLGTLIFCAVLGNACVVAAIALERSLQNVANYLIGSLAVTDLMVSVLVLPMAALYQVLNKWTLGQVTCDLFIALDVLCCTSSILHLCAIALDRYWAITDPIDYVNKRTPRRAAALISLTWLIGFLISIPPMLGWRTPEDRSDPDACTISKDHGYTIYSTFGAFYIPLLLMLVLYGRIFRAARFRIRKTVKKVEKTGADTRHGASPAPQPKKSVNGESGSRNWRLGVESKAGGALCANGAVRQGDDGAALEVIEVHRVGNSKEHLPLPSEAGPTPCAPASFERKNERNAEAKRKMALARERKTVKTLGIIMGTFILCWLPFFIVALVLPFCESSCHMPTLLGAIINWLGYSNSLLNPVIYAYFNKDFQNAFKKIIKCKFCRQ

[35] = molecular target: Serine/threonine-protein kinase tousled-like 1 (Homo sapiens) (UniProt Q9UKI8); conditions: Compound concentration 1000.0 nM
[36] = molecular target: Testis-specific serine/threonine-protein kinase 3 (Homo sapiens) (UniProt Q96PN8); conditions: Compound concentration 1000.0 nM
[37] = molecular target: Ephrin type-B receptor 6 (Homo sapiens) (UniProt O15197); conditions: Compound concentration 1000.0 nM
[38] = molecular target: Receptor-interacting serine/threonine-protein kinase 4 (Homo sapiens) (UniProt P57078); conditions: Compound concentration 1000.0 nM
[39] = molecular target: AP2-associated protein kinase 1 (Homo sapiens) (UniProt Q2M2I8); conditions: Compound concentration 1000.0 nM

Cyclin-dependent kinase 4 (Homo sapiens), sequence (P11802 whole entry): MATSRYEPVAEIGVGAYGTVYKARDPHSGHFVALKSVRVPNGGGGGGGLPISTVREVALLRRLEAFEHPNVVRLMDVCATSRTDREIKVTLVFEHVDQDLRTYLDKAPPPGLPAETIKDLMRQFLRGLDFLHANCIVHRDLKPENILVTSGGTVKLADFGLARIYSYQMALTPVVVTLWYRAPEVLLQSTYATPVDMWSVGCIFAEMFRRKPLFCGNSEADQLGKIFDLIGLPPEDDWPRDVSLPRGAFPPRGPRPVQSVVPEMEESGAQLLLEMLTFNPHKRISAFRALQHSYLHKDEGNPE
Tyrosine-protein kinase receptor TYRO3 (Homo sapiens), sequence (Q06418 whole entry): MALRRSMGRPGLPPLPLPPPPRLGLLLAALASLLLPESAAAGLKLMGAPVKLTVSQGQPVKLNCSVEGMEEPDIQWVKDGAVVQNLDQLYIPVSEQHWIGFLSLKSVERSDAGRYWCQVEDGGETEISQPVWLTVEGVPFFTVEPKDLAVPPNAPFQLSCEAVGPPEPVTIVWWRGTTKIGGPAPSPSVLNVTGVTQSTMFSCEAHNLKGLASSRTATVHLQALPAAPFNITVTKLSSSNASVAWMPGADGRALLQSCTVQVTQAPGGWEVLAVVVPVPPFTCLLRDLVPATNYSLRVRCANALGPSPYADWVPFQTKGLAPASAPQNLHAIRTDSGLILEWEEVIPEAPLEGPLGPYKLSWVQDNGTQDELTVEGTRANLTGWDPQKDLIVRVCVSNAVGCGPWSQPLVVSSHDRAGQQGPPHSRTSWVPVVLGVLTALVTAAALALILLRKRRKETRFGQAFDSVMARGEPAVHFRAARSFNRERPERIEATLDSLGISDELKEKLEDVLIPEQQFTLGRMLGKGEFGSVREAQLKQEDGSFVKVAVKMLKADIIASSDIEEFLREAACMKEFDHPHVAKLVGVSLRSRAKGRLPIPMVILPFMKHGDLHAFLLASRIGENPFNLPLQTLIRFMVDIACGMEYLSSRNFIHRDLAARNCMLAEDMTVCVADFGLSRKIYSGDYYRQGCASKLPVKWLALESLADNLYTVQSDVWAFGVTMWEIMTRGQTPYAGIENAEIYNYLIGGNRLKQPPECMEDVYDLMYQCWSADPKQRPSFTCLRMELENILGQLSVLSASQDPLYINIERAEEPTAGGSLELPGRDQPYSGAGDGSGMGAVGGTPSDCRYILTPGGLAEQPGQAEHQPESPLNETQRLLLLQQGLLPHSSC
Sigma non-opioid intracellular receptor 1 (Homo sapiens), sequence (Q99720 whole entry): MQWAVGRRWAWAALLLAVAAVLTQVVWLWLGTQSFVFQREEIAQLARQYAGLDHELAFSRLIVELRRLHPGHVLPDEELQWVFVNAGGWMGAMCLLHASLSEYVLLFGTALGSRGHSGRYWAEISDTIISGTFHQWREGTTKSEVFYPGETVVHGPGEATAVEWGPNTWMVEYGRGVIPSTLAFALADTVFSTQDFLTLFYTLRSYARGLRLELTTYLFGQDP
Bone morphogenetic protein receptor type-1B (Homo sapiens), sequence (O00238 whole entry): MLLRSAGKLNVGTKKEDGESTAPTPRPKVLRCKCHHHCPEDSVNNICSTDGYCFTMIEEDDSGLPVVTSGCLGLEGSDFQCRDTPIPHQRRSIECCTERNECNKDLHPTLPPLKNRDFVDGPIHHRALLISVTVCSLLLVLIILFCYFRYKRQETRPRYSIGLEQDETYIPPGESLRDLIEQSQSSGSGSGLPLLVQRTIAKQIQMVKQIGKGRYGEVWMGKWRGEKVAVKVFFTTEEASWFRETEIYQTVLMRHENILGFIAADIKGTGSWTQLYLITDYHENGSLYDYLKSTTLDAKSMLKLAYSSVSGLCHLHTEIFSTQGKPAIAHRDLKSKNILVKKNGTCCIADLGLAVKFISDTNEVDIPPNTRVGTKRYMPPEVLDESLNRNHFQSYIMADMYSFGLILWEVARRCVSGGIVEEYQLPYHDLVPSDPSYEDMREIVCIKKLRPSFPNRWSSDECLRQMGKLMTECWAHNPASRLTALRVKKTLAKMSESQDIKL
Tyrosine-protein kinase ABL1 (Homo sapiens), sequence (P00519 whole entry): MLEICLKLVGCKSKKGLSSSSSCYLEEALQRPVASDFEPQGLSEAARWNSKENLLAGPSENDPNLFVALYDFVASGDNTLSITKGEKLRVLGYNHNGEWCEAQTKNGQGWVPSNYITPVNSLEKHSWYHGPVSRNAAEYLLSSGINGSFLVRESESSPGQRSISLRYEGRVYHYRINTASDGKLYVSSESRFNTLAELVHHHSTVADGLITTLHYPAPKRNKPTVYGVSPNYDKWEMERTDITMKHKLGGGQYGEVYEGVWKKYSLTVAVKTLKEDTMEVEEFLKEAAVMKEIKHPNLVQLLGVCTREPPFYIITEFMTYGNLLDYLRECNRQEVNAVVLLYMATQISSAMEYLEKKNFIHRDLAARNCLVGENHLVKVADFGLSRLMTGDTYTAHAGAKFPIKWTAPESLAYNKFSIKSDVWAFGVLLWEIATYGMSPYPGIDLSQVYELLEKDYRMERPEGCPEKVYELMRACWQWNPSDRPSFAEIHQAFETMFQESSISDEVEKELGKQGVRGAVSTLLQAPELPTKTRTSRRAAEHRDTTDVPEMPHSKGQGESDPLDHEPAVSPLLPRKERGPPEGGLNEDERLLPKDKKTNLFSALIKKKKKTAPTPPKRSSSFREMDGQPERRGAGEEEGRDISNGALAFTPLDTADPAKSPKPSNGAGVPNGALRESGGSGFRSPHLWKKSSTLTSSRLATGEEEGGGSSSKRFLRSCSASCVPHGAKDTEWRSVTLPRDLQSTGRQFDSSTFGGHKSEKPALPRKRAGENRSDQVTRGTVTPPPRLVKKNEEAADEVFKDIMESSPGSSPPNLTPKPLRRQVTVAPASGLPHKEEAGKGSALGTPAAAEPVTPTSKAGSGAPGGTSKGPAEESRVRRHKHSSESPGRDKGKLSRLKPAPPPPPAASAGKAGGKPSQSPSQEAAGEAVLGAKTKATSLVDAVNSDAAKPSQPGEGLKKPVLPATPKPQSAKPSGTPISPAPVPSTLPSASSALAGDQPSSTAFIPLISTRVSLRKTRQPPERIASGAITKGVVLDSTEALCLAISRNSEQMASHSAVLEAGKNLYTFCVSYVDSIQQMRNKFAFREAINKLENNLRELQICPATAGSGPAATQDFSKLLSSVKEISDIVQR
Serine/threonine-protein kinase tousled-like 1 (Homo sapiens), sequence (Q9UKI8 whole entry): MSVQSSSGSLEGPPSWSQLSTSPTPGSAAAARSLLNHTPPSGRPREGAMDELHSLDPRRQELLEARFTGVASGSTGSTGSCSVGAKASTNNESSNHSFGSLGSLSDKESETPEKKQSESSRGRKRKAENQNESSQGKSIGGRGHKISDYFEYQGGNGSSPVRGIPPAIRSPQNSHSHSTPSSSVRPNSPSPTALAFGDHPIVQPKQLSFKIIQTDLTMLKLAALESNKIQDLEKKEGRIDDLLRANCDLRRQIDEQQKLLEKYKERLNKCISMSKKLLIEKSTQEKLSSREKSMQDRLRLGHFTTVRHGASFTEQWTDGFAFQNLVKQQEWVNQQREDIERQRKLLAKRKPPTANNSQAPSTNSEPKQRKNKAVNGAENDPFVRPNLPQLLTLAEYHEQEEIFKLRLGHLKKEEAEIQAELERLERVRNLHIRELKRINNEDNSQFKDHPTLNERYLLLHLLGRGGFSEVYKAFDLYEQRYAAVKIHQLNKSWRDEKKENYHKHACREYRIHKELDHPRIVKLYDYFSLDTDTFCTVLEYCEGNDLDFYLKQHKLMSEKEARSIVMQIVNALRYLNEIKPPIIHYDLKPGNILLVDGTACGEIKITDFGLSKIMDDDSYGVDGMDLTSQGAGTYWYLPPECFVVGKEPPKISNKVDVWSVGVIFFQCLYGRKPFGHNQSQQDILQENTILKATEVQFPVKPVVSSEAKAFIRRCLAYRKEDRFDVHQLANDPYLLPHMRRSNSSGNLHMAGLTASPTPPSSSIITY
Serine/threonine-protein kinase ULK1 (Homo sapiens), sequence (O75385 whole entry): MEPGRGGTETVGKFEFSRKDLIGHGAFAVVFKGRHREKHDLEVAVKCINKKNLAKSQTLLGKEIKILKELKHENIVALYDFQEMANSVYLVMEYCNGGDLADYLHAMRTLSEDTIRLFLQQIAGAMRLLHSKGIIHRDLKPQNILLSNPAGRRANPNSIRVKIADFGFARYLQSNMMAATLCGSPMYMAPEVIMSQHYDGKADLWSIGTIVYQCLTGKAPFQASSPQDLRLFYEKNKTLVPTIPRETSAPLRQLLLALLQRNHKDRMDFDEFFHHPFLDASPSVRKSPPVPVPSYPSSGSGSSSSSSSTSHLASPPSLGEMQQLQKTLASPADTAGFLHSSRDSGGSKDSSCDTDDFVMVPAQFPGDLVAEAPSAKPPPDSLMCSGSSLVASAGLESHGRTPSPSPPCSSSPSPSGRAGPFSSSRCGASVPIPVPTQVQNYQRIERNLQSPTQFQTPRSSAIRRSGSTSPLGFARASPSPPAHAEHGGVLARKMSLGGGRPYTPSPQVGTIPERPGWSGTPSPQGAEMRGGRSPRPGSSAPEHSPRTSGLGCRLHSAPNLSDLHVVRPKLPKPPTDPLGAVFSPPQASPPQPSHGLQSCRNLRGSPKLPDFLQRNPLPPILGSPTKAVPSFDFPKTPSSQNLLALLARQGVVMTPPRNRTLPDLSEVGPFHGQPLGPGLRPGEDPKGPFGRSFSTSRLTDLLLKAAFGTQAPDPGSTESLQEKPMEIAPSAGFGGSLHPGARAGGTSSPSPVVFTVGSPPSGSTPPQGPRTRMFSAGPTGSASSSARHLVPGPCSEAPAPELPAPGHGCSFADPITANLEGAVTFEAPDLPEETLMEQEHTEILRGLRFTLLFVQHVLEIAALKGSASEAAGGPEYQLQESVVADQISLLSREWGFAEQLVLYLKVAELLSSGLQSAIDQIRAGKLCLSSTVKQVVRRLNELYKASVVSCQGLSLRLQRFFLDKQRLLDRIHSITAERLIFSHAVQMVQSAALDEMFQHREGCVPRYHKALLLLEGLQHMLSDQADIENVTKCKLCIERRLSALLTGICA

Row | Compound | residual activity [1] [%] | residual activity [2] [%] | residual activity [3] [%] | residual activity [4] [%] | residual activity [5] [%] | residual activity [6] [%] | residual activity [7] [%] | residual activity [8] [%] | residual activity [9] [%] | residual activity [10] [%] | residual activity [11] [%] | residual activity [12] [%] | inhibition [13] [%] | residual activity [14] [%] | residual activity [15] [%] | residual activity [16] [%] | inhibition [17] [%] | inhibition [18] [%] | residual activity [19] [%] | residual activity [20] [%] | further results
1 | N#CC1(c2ccccn2)CCN(Cc2cc(C(=O)O)c(=O)n3ccccc23)CC1 [MSD-M1PAM] | 94 | 99 | 100 | 100 | 99 | 94 | 74 | 98 | 81 | 96 | 67 | 100 | 2.72 | 98 | 85 | 76 | -7.27 | 29.1 | 100 | 67 | residual activity [21]: 99%; residual activity [22]: 100%; residual activity [23]: 99%; residual activity [24]: 100%; residual activity [25]: 90%; residual activity [26]: 100%; residual activity [27]: 98%; residual activity [28]: 75%; residual activity [29]: 100%; residual activity [30]: 98%; residual activity [31]: 100%; residual activity [32]: 100%; residual activity [33]: 100%; inhibition [34]: 21%; residual activity [35]: 97%; residual activity [36]: 100%; residual activity [37]: 73%; residual activity [38]: 80%; residual activity [39]: 100%
2 | N#CC1(c2ccccn2)CCN(Cc2cc(C(=O)N3CCCC3)c(=O)n3ccccc23)CC1 | 91 | 98 | 95 | 100 | 94 | 100 | 88 | 78 | 96 | 34 | 100 | 100 | 13 | 78 | 72 | 91 | 18.6 | 16.3 | 92 | 95 | residual activity [21]: 97%; residual activity [22]: 95%; residual activity [23]: 58%; residual activity [24]: 64%; residual activity [25]: 97%; residual activity [26]: 100%; residual activity [27]: 90%; residual activity [28]: 84%; residual activity [29]: 100%; residual activity [30]: 92%; residual activity [31]: 89%; residual activity [32]: 88%; residual activity [33]: 100%; inhibition [34]: 26.7%; residual activity [35]: 85%; residual activity [36]: 100%; residual activity [37]: 100%; residual activity [38]: 100%; residual activity [39]: 100%
